Read-outs that look alike come from different tables or passages of the source.

A short description of series [1]: Free radical scavenging activity (DPPH) assay. As to conditions: mean ± S.E (n = 3). As to the method: The antioxidant activities of all newly synthesized compounds were measured as radical scavenging activities using 1,1-diphenyl-2-picrylhydrazyl (DPPH) (Sigma Chemical Co., Steinheim, Germany) and compared with ascorbic acid as a reference standard (Sigma-Aldrich Chemie GmbH, Taufkirchen, Germany)[46].
Where, 1 mL of the test compounds or ascorbic acid at concentrations (12.5, 25, 50 and 100 mg/mL) were mixed with 1 ml of the DPPH solution. The mixtures were incubated for 30 min at room temperature in dark. The absorbance was read using a JENWAY 6315 spectrophotometer (Keison Products, Chelmsford, England) at 517 nm against blank.
It was carried out in triplicate, and average values were used to determine the inhibitory percentage of DPPH according to the following equation: percent inhibition = [(B − A)/B]*100, where A is the absorbance of the compound or standard and B is the absorbance of blank. IC50 (µM) of each compound was calculated according to the nonlinear regression dose response-inhibition curve using Prism 5.03 (GraphPad, San Diego, CA, USA) and expressed as mean ± standard error (S.E).
In general terms: Loss of DPPH colour is used to gauge radical scavenging.

Series [2] addresses acetylcholine esterase (AChE) (Homo sapiens, UniProt P22303). Kind of series: biochemical. How it is done: The cholinesterase enzymes' inhibitory activity was evaluated using modified Osman et al.[45] method. Briefly, samples were initially dissolved in DMSO to achieve a concentration of 10 mg/mL. Then 0.1 mL of the sample was diluted to 1 mL methanol to reach the concentration of 1 mg/mL (concentration 1). From concentration (1), 0.1 mL was further diluted to 1 mL to reach the concentration of 0.1 mg/mL (concentration 2). Concentration 1 (1 mg/mL) will become 0.1 mg/mL inside the plate and concentration 2 will become 0.01 mg/mL due to the addition of the reagents of the assay that dilute the sample ten folds. […] Then 20 μL of the sample/standard solution was added followed by 140 μL of buffer (1). The mixture was allowed to stand for 15 min at room temperature.

The test system of series [3] is irradiated mice. The series can be described thus: Open field test in irradiated mice. As to conditions: 14 at 30 mg/kg/day i.p. for 7 days before 5 Gy irradiation. The format is in vivo. As to the method: (§1) Twenty-one mice were blindly allocated into three groups (n = 7). The first group (control) was injected i.p. with 10% DMSO, daily, for 7 days. The second one (irradiated) was treated as a control, and after 1 h from the last DMSO injection, the mice were exposed to 5 Gy gamma radiation. A third group (Compound 14 + irradiation) received 30 mg/kg/day i.p. (1/10 LD50) of compound 14, daily for 7 days. Then on the last day, after 1 h of injection, animals were irradiated at a dose of 5 Gy. After 24 h. of the last injection, behavioral tests were carried out. Immediately after behavioral test, mice were anesthetized using urethane ([…] i.p.)[49] and sacrificed by cervical dislocation then brain tissues were dissected out, rinsed with ice-cold saline, and dried on a filter paper. Then it was homogenized in ice-cold 0.1 M phosphate buffer saline (pH = 7.4) and stored at – 80 °C for subsequent biochemical analysis.
(§2) All behavioral tests have been carried out under blind conditions to avoid any bias in evaluating the animal's behavior. Mice were allowed to a pre-test session a day before scarification for habituation.
This evaluates locomotors and exploratory activities in mice where, the apparatus is transparent walls and a white floor 30 × 30 × 15 cm, divided into 16 squares of equal area. Each mouse was placed in the center of the open field test apparatus and allowed to roam freely for 5 min and latency time (ie, time taken to start moving) was detected as well as locomotion frequency as ambulation (ie, number of squares crossed), rearing frequency (ie, number of times the mice stand on its hind legs or with its forearm against the wall or in the free air)[50].

For another series, the system named is Glutathione (GSH). Kind of series: GSH level in brain tissue homogenate of irradiated mice. The class given is in vivo. Particulars: 14 at 30 mg/kg/day i.p. for 7 days, 5 Gy; compared to irradiated mice. As to the method:
as §1
(§3) The antioxidant activity of compound 14 was measured by estimation of MPO activity using an ELISA Kit from MyBioSource Cat.No.: CSB-E08723m (Houston, TX., USA) as well as the level of GSH was evaluated using a colorimetric kit according to the method of E. Beutler[52].

The test system of series [4] is Acetylcholinesterase (AChE). The series can be described thus: AChE in brain tissue homogenate of irradiated mice (ELISA). The format is in vivo. Particulars: 14 at 30 mg/kg/day i.p. for 7 days, 5 Gy; compared to radiation only. How it is done: (§4) Twenty-one mice were blindly allocated into three groups (n = 7). The first group (control) was injected i.p. with 10% DMSO, daily, for 7 days. […]. A third group (Compound 14 + irradiation) received 30 mg/kg/day i.p. (1/10 LD50) of compound 14, daily for 7 days. Then on the last day, after 1 h of injection, animals were irradiated at a dose of 5 Gy. After 24 h. of the last injection, behavioral tests were carried out. […]. Then it was homogenized in ice-cold 0.1 M phosphate buffer saline (pH = 7.4) and stored at – 80 °C for subsequent biochemical analysis.
(§5) Brain homogenates were used for measuring AChE using Mouse Acetylcholinesterase (AChE) ELISA Kit content using the Mouse Acetylcholinesterase ELISA Kit from MyBioSource Cat.No. MBS260553 (San Diego, CA., USA) according to the manufacturer’s instructions. The generation of norepinephrine (NE) in brain tissues was measured using an Eliza kit (MBS2600834) from MyBioSource (San Diego, CA, USA) according to the manufacturer’s instructions.
(An ELISA detects its analyte on a solid surface through an enzyme-linked reagent.)

Series [5] relates to irradiated mice. The series can be described thus: Forced swimming test in irradiated mice. The class given is in vivo. Particulars: 14 at 30 mg/kg/day i.p. for 7 days before 5 Gy irradiation; compared to radiation only. As to the method:
as §1, §2
Mice were independently forced to swim in an open cylindrical container (22 cm diameter, 40 cm height) that contained water (23–25 °C).

In the next series the test system is Myeloperoxidase (MPO). The series can be described thus: MPO in brain tissue homogenate of irradiated mice (ELISA). The format is in vivo. As to conditions: 14 at 30 mg/kg/day i.p. for 7 days, 5 Gy; compared to irradiated mice. How it is done: as §1, §3
In the next series the test system is Norepinephrine (NE). Kind of series: Norepinephrine in brain tissue homogenate of irradiated mice (ELISA). The class given is in vivo. Particulars: 14 at 30 mg/kg/day i.p. for 7 days, 5 Gy; Fig. 6B. How it is done: as §4, §5
Series [6] in a line: Acute toxicity study (LD50). Particulars: mouse, in vivo, ip; albino male mice, i.p.; read-out: LD50 (median lethal dose). How it is done: Lethal dose fifty (LD50) was determined for the most promising compound 14 to estimate its acute toxicity in albino male mice. […] Consequently, one-tenth of this dose was selected as the therapeutic dose for further evaluation of the potential radioprotective effects of 14. This was following our previous studies[42],[63],[68].

The mark [7] stands for this setting: in vitro, mean ± S.E (n = 3), read-out: AChE IC50.

Chain of acetylcholine esterase (AChE) (P22303 32-614): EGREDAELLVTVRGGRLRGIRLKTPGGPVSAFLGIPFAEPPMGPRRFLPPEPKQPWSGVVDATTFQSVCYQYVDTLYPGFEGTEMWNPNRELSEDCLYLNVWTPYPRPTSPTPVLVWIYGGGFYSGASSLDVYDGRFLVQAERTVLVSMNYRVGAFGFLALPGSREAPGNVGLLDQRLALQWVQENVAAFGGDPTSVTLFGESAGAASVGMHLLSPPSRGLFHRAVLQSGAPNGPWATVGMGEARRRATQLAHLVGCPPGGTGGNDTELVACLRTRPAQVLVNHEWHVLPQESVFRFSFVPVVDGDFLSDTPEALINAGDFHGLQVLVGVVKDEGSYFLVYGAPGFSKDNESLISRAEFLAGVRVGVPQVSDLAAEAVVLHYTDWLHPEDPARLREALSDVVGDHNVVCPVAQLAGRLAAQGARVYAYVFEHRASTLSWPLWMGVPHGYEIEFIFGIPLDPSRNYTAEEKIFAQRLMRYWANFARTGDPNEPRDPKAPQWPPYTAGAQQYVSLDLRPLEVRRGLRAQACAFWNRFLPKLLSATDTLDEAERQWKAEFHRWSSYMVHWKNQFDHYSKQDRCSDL

As usually defined, the IC50 is the concentration needed to halve the response being measured. In the case of `Cn1c(NC(=O)CSc2nc3ccc(I)cc3c(=O)n2-c2ccc(S(N)(=O)=O)cc2)cc(=O)n(C)c1=O` [Compound 16, N-(1,3-Dimethyl-2,6-dioxo-1,2,3,6-tetrahydropyrimidin-4-yl)-2-(6-iodo-4-oxo-3-(4-sulfamoylphenyl)-3,4-dihydroquinazolin-2-ylthio) acetamide], the figures for the half-maximal inhibitory concentration (IC50) in [1] and in series [2] (setting [7]) were 137.3 ± 0.29 µM and 0.0862 ± 0.00214 µM, respectively.

With `CCOc1ccc2nc(NC(=O)CSc3nc4ccc(I)cc4c(=O)n3-c3ccc(S(N)(=O)=O)cc3)sc2c1` [Compound 7, N-(6-Ethoxybenzo[d]thiazol-2-yl)-2-(6-iodo-4-oxo-3-(4-sulfamoylphenyl)-3,4-dihydroquinazolin-2-ylthio) acetamide], the 50% inhibitory concentration (IC50) in series [1] worked out at 118.8 ± 0.92 µM; in series [2] (setting [7]) it was 0.09 ± 0.00583 µM.

With `NS(=O)(=O)c1ccc(-n2c(SCC(=O)NC3CCN(Cc4ccccc4)CC3)nc3ccc(I)cc3c2=O)cc1` [Compound 11, N-(1-Benzylpiperidin-4-yl)-2-(6-iodo-4-oxo-3-(4-sulfamoylphenyl)-3,4-dihydroquinazolin-2-ylthio) acetamide], the IC50 in series [1] came out at 109 ± 1.09 µM; in [2] (setting [7]), 0.0239 ± 0.00141 µM.

Broadly, the LD50 is the dose at which mortality reaches 50%. For `NS(=O)(=O)c1ccc(-n2c(SCC(=O)Nc3cnccn3)nc3ccc(I)cc3c2=O)cc1` [Compound 14, 2-(6-Iodo-4-oxo-3-(4-sulfamoylphenyl)-3,4-dihydroquinazolin-2-ylthio)-N-(pyrazin-2-yl) acetamide], in the series on irradiated mice [3], the “ambulation (open field test), effect of radiation abolished by” value was found to be 31% and the “open field parameters (latency, ambulation, rearing)” value is “normalized all open field parameters”. The “decrease in latency time (open field test)” value with irradiated mice [3] (compared with mice that received radiation alone) is given as 72.4%. For the same compound, the “increase in brain GSH levels” value in the series with Glutathione (GSH) was 17%. For the same compound, the 50% inhibitory concentration (IC50) in series [1] turned out to be 95.5 ± 1.67 µM. Moreover, the “decrease in brain AChE” value in series [4] came to 21%. Further, the “decrease in mean immobility time (forced swimming test)” value with irradiated mice [5] came to 33%. In the series on Myeloperoxidase (MPO), the “decrease in brain MPO” value came out at 39.6%. Also, the “Norepinephrine (NE), effect of radiation abolished by” value in the series with Norepinephrine (NE) is recorded as 25%. In [2] (setting [7]), the IC50 was determined as 0.0116 ± 0.00045 µM. The LD50 in series [6] turned out to be 300 mg/kg.

Turning to `CCOC(=O)c1ccccc1NC(=O)CSc1nc2ccc(I)cc2c(=O)n1-c1ccc(S(N)(=O)=O)cc1` [Compound 12, Ethyl 2-(2-(6-iodo-4-oxo-3-(4-sulfamoylphenyl)-3,4-dihydroquinazolin-2-ylthio)acetamido)benzoate], the concentration for half-maximal inhibition (IC50) in [1] turned out to be 122.3 ± 0.92 µM; in series [2] (setting [7]), 0.0607 ± 0.0028 µM.

Take `NS(=O)(=O)c1ccc(-n2c(SCC(=O)Nc3nc4ccc([N+](=O)[O-])cc4s3)nc3ccc(I)cc3c2=O)cc1` [Compound 8, 2-(6-Iodo-4-oxo-3-(4-sulfamoylphenyl)-3,4-dihydroquinazolin-2-ylthio)-N-(6-nitrobenzo[d]thiazol-2-yl) acetamide]: the IC50 in series [1] was 177 ± 1.99 µM; in [2] (setting [7]), more than 0.1 µM.

As to `NS(=O)(=O)c1ccc(-n2c(SCC(=O)NN3CCOCC3)nc3ccc(I)cc3c2=O)cc1` [Compound 9, 2-(6-Iodo-4-oxo-3-(4-sulfamoylphenyl)-3,4-dihydroquinazolin-2-ylthio)-N-morpholinoacetamide], the IC50 in series [1] is 148 ± 1.53 µM; in series [2] (setting [7]) it was more than 0.1 µM.

Take `NS(=O)(=O)c1ccc(-n2c(SCC(=O)Nc3nccs3)nc3ccc(I)cc3c2=O)cc1` [Compound 6, 2-(6-Iodo-4-oxo-3-(4-sulfamoylphenyl)-3,4-dihydroquinazolin-2-ylthio)-N-(thiazol-2-yl) acetamide]: the IC50 in [1] was 143.4 ± 1.12 µM; in [2] (setting [7]), more than 0.1 µM.

With `Cc1cc(NC(=O)CSc2nc3ccc(I)cc3c(=O)n2-c2ccc(S(N)(=O)=O)cc2)no1` [Compound 5, 2-(6-Iodo-4-oxo-3-(4-sulfamoylphenyl)-3,4-dihydroquinazolin-2-ylthio)-N-(5-methylisoxazol-3-yl) acetamide], the IC50 in [1] was 149.8 ± 1.26 µM; in [2] (setting [7]) it was more than 0.1 µM.

As for `NS(=O)(=O)c1ccc(-n2c(SCC(=O)Nc3c[nH]c(=O)[nH]c3=O)nc3ccc(I)cc3c2=O)cc1` [Compound 15, N-(2,4-Dioxo-1,2,3,4-tetrahydropyrimidin-5-yl)-2-(6-iodo-4-oxo-3-(4-sulfamoylphenyl)-3,4-dihydroquinazolin-2-ylthio) acetamide], the IC50 in series [1] is 136.3 ± 1.3 µM; in [2] (setting [7]), more than 0.1 µM.

Regarding `CCOC(=O)c1cccc(NC(=O)CSc2nc3ccc(I)cc3c(=O)n2-c2ccc(S(N)(=O)=O)cc2)c1` [Compound 13, Ethyl 3-(2-(6-iodo-4-oxo-3-(4-sulfamoylphenyl)-3,4-dihydroquinazolin-2-ylthio)acetamido)benzoate], the IC50 amounted to 129.1 ± 1.03 µM in series [1] and 0.0748 ± 0.00306 µM in series [2] (setting [7]).

In the case of `CCOC(=O)N1CCC(NC(=O)CSc2nc3ccc(I)cc3c(=O)n2-c2ccc(S(N)(=O)=O)cc2)CC1` [Compound 10, Ethyl 4-(2-(6-iodo-4-oxo-3-(4-sulfamoylphenyl)-3,4-dihydroquinazolin-2-ylthio)acetamido) piperidine-1-carboxylate], the IC50 was 154.9 ± 1.24 µM in [1] and more than 0.1 µM in series [2].

`CN1C(=O)c2ccc(NC(=O)CSc3nc4ccc(I)cc4c(=O)n3-c3ccc(S(N)(=O)=O)cc3)cc2C1=O` [Compound 17, 2-(6-Iodo 4-oxo-3-(4-sulfamoylphenyl)-3,4-dihydroquinazolin-2-ylthio)-N-(2-methyl-1,3-dioxoisoindolin-5-yl) acetamide]: the values for the IC50 in series [1] and in [2] (setting [7]) were 127 ± 1.93 µM and 0.0774 ± 0.00129 µM, respectively.

Take `O=C1O[C@H]([C@@H](O)CO)C(O)=C1O` [Ascorbic acid, ascorbic acid, reference compound]: the IC50 in series [1] is 112.8 ± 1.03 µM.

For the origin of these results see PMC10511408, “Novel iodoquinazolinones bearing sulfonamide moiety as potential antioxidants and neuroprotectors” (Scientific Reports, 2023).
